According to patent US12653896B2, “Targeted dendrimer conjugates” (Starpharma Pty Ltd, priority 2019, dated 2026):

Columns and labels:
MDA-MB-453 cells = test: Cell association by flow cytometry (Cy5), MDA-MB-453; assay type: cell-based, human; conditions: for Mean Fluorescence Intensity (Cy5), MFI: MDA-MB-453, 1 hour on ice, triplicate wells; for binding to HER2-positive MDA-MB-453 cells: result in words
Method: The HER2-expressing human metastatic carcinoma cell line MDA-MB-453 (ATCC HTB-131) and the HER2-negative epithelial adenocarcinoma cell line MDA-MB-231 (ATCC HTB-26) were maintained in Dulbecco's Modified Eagle's Medium (DMEM) containing 10% FBS and penicillin-streptomycin (100 U/mL) at 37° C. under a 5% CO2 humidified atmosphere and subcultured prior to confluence using trypsin. Human adenocarcinoma ovary cell line SKOV-3 (ATCC® HTB-77) cells were maintained in RPMI media with the addition of 10% (v/v) FBS and penicillin-streptomycin (100 U/mL) at 37° C. in a 5% CO2 humidified atmosphere and subcultured prior to confluence.
For measurement of cell association by flow cytometry, cells in suspension were added at 1×10^5 cells per well to a 96 well assay plate. Following incubation with nanobody-dendrimer or unconjugated dendrimer for 1 hour on ice, cells were washed three times with 200 ul of DMEM containing 10% FBS to remove unbound dendrimer. Cells were then resuspended in chilled Fluorobrite media supplemented with 10% FBS and Cy5 fluorescence measured using 642 nm excitation and emission collected between 661-691 nm. To measure internalisation kinetics, nanobody-dendrimer was incubated with cells for 24, 4, 1, 0.5 and 0.1 hours at 37° C. before unbound nanobody-dendrimer was removed by washing and analysed by flow cytometry.

MDA-MB-231 cells [1] = test: In vitro association study (flow cytometry, Cy5), MDA-MB-231; assay type: cell-based, human; conditions: for cellular association value (DFO/Cy5 BHA dendrimers; quantity not named, table stands under 'Percent of cellular association'): MDA-MB-231, 0.5 h
Method: (§1) MDA-MB-231, MDA-MB-231/HER2 (HER2 knock in) (as described above), or SKOV-3 cells were seeded in a 24-well plate (1×10^5 cells per well) in 500 μL of appropriate growth media with the addition of 10% (v/v) fetal bovine serum (FBS) and incubated with compound 36 or 41 at 3.33 nM, […] atmosphere. After incubation, non-binding/non-associating particles were removed from adherent cells by gently washing with DPBS three times (300 μL/well). Cells were removed from plates by treatment with TrypLE™ Express Enzyme (1×), no phenol red (150 μL/well) for 5-10 min at room temperature. The plates were then placed on ice. Cellular binding and association of sample were then determined through flow cytometry by the acquisition of the signal from Cy5.

MDA-MB-231/HER2 cells = test: In vitro association study (flow cytometry, Cy5), MDA-MB-231/HER2; assay type: cell-based, human; conditions: for cellular association value (DFO/Cy5 BHA dendrimers; quantity not named, table stands under 'Percent of cellular association'): MDA-MB-231/HER2, 0.5 h
Method: as §1

ErbB2-ECD = target: T1, ErbB2-ECD (Homo sapiens, UniProt P04626); test: SPR binding to immobilized ErbB2-ECD; conditions: result in words
T1 construct: Direct Immobilization of ErbB2-ECD
Method: Using a ProteOn XPR36 instrument, ErbB2-ECD was immobilized at 25° C. onto a GLC sensor chip surface (Bio-Rad), with HBS-P+ running buffer (10 mM HEPES, pH 7.4, 150 mM NaCl, 0.05% Tween 20). Standard amine coupling methodology described in Bio-Rad's amine coupling kit was utilized for this immobilization. Lane 1 was activated with a 50:50 mixture of EDC (0.5 mM) and sulfo-NHS (0.125 mM). ErbB2 protein was diluted to […] in 10 mM sodium acetate, pH 5.0 and injected over the activated surface channel. Any remaining activated sites were blocked with 1 M ethanolamine-HCl, pH 8.5.
All SPR binding experiments were performed at 25° C. using HBS-EP+/BSA (10 mM HEPES, pH 7.4, 150 mM NaCl, 3 mM EDTA, 0.05% Tween20, 0.1 mg/ml BSA) as the instrument running buffer (RB). Following immobilization procedures, various concentrations of anti-ErbB2 affibodies and their MMAE-dendrimer conjugates were injected at 60 μl/min over immobilized ErbB2 proteins and their association monitored for 90 sec. Running buffer was subsequently injected over bound Ab-ErbB2 complexes and dissociation monitored for up to 60 min. […] All binding measurements were performed in triplicate.
Collected experimental data were processed using Scrubber-Pro software (www.biologic.com.au). […]

MDA-MB-231 cells [2] = test: In vitro association study of G5 cabazitaxel dendrimers, MDA-MB-231; assay type: cell-based, human; conditions: MDA-MB-231, 3.33 nM
Method: (§2) MDA-MB-231, MDA-MB-231/HER2 (HER2 knock in), or SKOV-3 cells were seeded in a 24-well plate (1×10^5 cells per well) in 500 μL of appropriate growth media with the addition of 10% (v/v) fetal bovine serum (FBS) and 1% (v/v) penicillin-streptomycin, and incubated with compound 70 (G5, PEG1000, CTX) or 78 (2D3, G5, PEG1000, CTX) at 3.33 nM, with incubation time varied from 1 to 24 h at 37° C. in a 5% CO2 humidified atmosphere. After incubation, non-binding/non-associating particles were removed from adherent cells by gently washing with DPBS three times (300 μL/well). Cells were removed from plates by treatment with TrypLE™ Express Enzyme (1×), no phenol red (150 μL/well) for 5-10 min at room temperature. The plates were then placed on ice. Cellular binding and association of sample were then determined through flow cytometry by the acquisition of the signal from Cy5.

[3] = system: MDA-MB-231/HER2 (HER2 knock in) cells; test: In vitro association study of G5 cabazitaxel dendrimers, MDA-MB-231/HER2; assay type: cell-based, human; conditions: MDA-MB-231/HER2, 3.33 nM
Method: as §2

SKOV-3 cells = test: In vitro association study of G5 cabazitaxel dendrimers, SKOV-3; assay type: cell-based, human; conditions: SKOV-3, 3.33 nM
Method: as §2

| Substance | Mean Fluorescence Intensity (Cy5), MFI (MDA-MB-453 cells) | binding to HER2-positive MDA-MB-453 cells (MDA-MB-453 cells) | Mean fluorescence intensity (MDA-MB-231 cells [1]; MDA-MB-231, 1 h) | Mean fluorescence intensity (MDA-MB-231 cells [1]; MDA-MB-231, 2 h) | Mean fluorescence intensity (MDA-MB-231 cells [1]; MDA-MB-231, 4 h) | Mean fluorescence intensity (MDA-MB-231 cells [1]; MDA-MB-231, 24 h) | Mean fluorescence intensity (MDA-MB-231/HER2 cells; MDA-MB-231/HER2, 1 h) | Mean fluorescence intensity (MDA-MB-231/HER2 cells; MDA-MB-231/HER2, 2 h) | Mean fluorescence intensity (MDA-MB-231/HER2 cells; MDA-MB-231/HER2, 4 h) | Mean fluorescence intensity (MDA-MB-231/HER2 cells; MDA-MB-231/HER2, 24 h) | cellular association value (DFO/Cy5 BHA dendrimers; quantity not named, table stands under 'Percent of cellular association') (MDA-MB-231 cells [1]) | cellular association value (DFO/Cy5 BHA dendrimers; quantity not named, table stands under 'Percent of cellular association') (MDA-MB-231/HER2 cells) | also measured |
| --- | --- | --- | --- | --- | --- | --- | --- | --- | --- | --- | --- | --- | --- |
| (MeTzPh)PEG4CO-NHPEG24CO—[N(PN)2][Lys]8[((α-NHCy5)1(α-NHAc)7)(ε-NH-COPEG1100)8] [Compound 37] | 3.097 ± 0.01 | did not bind | 258.3 ± 19.6 | 256.7 ± 24.8 | 221.3 ± 3.5 | 215.3 ± 4.9 | 293.0 ± 8.5 | 268.0 ± 11.3 | 241.5 ± 17.7 | 206.0 ± 2.8 |  |  | Percent of cellular association (MDA-MB-231 cells [1]; MDA-MB-231, 1 h): 1.10 ± 0.35%; Percent of cellular association (MDA-MB-231 cells [1]; MDA-MB-231, 2 h): 1.23 ± 0.47%; Percent of cellular association (MDA-MB-231/HER2 cells; MDA-MB-231/HER2, 1 h): 2.47 ± 0.81% |
| (MeTzPh)PEG4CO-NHPEG24CO—[N(PN)2][Lys]16[((α-NHCy5)1(α-NHAc)15)(ε-NH-COPEG1100)16] [Compound 38] | 6.827 ± 0.07 | did not bind | 239.3 ± 1.2 | 230.7 ± 2.3 | 217.3 ± 3.2 | 195.7 ± 0.6 | 269.0 ± 19.8 | 225.0 ± 5.7 | 198.0 ± 2.8 | 175.5 ± 0.7 |  |  | Percent of cellular association (MDA-MB-231/HER2 cells; MDA-MB-231/HER2, 1 h): 0.90 ± 0.35%; Percent of cellular association (MDA-MB-231/HER2 cells; MDA-MB-231/HER2, 2 h): 0.50 ± 0.10%; Percent of cellular association (MDA-MB-231/HER2 cells; MDA-MB-231/HER2, 4 h): 0.50 ± 0.35%; Percent of cellular association (MDA-MB-231/HER2 cells; MDA-MB-231/HER2, 24 h): 0.37 ± 0.15% |
| (MeTzPh)PEG4CO-NHPEG24CO—[N(PN)2][Lys]32[((α-NHCy5)1(α-NHAc)31)(ε-NH-COPEG1100)32] [Compound 39] | 4.349 ± 0.08 | did not bind | 252.0 ± 6.0 | 249.0 ± 8.7 | 247.3 ± 7.2 | 196.3 ± 3.1 | 257.5 ± 12.0 | 249.0 ± 15.6 | 207.0 ± 2.8 | 207.5 ± 40.3 |  |  | Percent of cellular association (MDA-MB-231 cells [1]; MDA-MB-231, 1 h): 0.97 ± 0.12%; Percent of cellular association (MDA-MB-231/HER2 cells; MDA-MB-231/HER2, 4 h): 0.47 ± 0.21% |
| Azido-PEG24CO—[N(PN)2[Lys]8[(α-NH-Glu-Val-Cit-PAB-MMAE)8(ε-NH-COPEG2000)8] [Compound 21] |  |  |  |  |  |  |  |  |  |  |  |  | binding to ErbB2 (ErbB2-ECD): No binding |
| BHALys[Lys]2[Lys]4[((α-NH-COPEG24NH-COPEG4(PhTzMe/TCO-PEG3NH-COPEG24NH-Glu-DBCO))1(α-Lys(α-NHCy5)(ε-NHDFO))1(α-NH2)2)(ε-NH-COPEG1000)4] [Compound 82] |  |  |  |  |  |  |  |  |  |  | 23.3 ± 3.98 | 14.83 ± 1.60 |  |
| BHALys[Lys]2[Lys]4[Lys]8[((α-NH-COPEG24NH-COPEG4(PhTzMe)/TCO-PEG3NH-COPEG24NH-Glu-DBCO)1(α-Lys(α-NHCy5)(ε-NHDFO))1(α-NH2)6)(ε-NH-COPEG1000)8] [Compound 83] |  |  |  |  |  |  |  |  |  |  | 42.8 ± 2.78 | 43.23 ± 3.48 |  |
| BHALys[Lys]2[Lys]4[Lys]8[Lys]16[((α-NH-COPEG24NH-COPEG4(PhTzMe)/TCO-PEG3NH-COPEG24NH-Glu-DBCO)1(α-Lys(α-NHCy5)(ε-NHDFO))1(α-NH2)14)(ε-NH-COPEG1000)16] [Compound 84] |  |  |  |  |  |  |  |  |  |  | 20.23 ± 0.63 | 16.7 ± 2.48 |  |
| BHALys[Lys]2[Lys]4[Lys]8[Lys]16[Lys]32[((α-NH-COPEG24NH-COPEG4(PhTzMe)/TCO-PEG3NH-COPEG24NH-Glu-DBCO)1(α-Lys(α-NHCy5)(ε-NHDFO))1(α-NH2)30)(ε-NH-COPEG1000)32] [Compound 85] |  |  |  |  |  |  |  |  |  |  | 33.23 ± 2.2 | 25.6 ± 0.43 |  |
| BHA[Lys]32[((α-NH-COPEG24NH-COPEG4(PhMeTz))1-4(α-NHCy5)1(α-NH-COPEG9-Val-Ala-PAB-P-Trigger-NMeCO-CTX)22) (α-NH2)5-8(ε-NH-COPEG1100)32] [Compound 70] |  |  |  |  |  |  |  |  |  |  |  |  | Mean fluorescence intensity (MFI) (MDA-MB-231 cells [2]; 1 h): 1.00 ± 0.14; Mean fluorescence intensity (MFI) (MDA-MB-231 cells [2]; 3 h): 4.10 ± 0.71; Mean fluorescence intensity (MFI) (MDA-MB-231 cells [2]; 6 h): 5.65 ± 0.64; Mean fluorescence intensity (MFI) (MDA-MB-231 cells [2]; 24 h): 13.4 ± 0.07; binding over 24 h (MDA-MB-231 cells [2]; in words): minimal binding; Mean fluorescence intensity (MFI) ([3]; 1 h): 0.77 ± 0.06; Mean fluorescence intensity (MFI) ([3]; 3 h): 7.72 ± 4.17; Mean fluorescence intensity (MFI) ([3]; 6 h): 5.82 ± 0.07; Mean fluorescence intensity (MFI) ([3]; 24 h): 12.4±0.64; binding over 24 h ([3]; in words): minimal binding; Mean fluorescence intensity (MFI) (SKOV-3 cells; 1 h): 1.00 ± 0.29; Mean fluorescence intensity (MFI) (SKOV-3 cells; 3 h): 3.46 ± 0.69; Mean fluorescence intensity (MFI) (SKOV-3 cells; 6 h): 3.90 ± 0.10; Mean fluorescence intensity (MFI) (SKOV-3 cells; 24 h): 11.4±0.42; binding over 24 h (SKOV-3 cells; in words): minimal binding |
